Values after ≈ are worked out from the molar mass of the structure shown.
What was measured:
CLAS = CLAS transmission rate using graft-based approach (Example 3); format: in vivo; conditions: budwood treated at 500 μg/ml, grafted onto Valencia trees
Experimental: HLB-infected budwoods were collected in HLB infected grove in teaching block at CREC. The presence of CLAS titers in budwood was confirmed by qPCR.
C16 and streptomycin were applied at the rate of 500 μg/ml; water-treated budwood was used as check. The budwoods were placed in a glass bottle containing either treatment or water as check. The glass bottles were kept in a ventilation hood with light on to increase the evaporation rate, therefore, promoting the uptake of antibiotics. Leaf and bark samples were collected from each budwood and 100 mg were accurately weighed and used for DNA extraction with Promega genomic DNA extraction kit. CLAS populations in each sample were determined using standard qPCR protocol. Each DNA sample was run in triplicate wells.
After overnight treatment, the antibiotic-treated budwood was grafted onto 2-3 years old Valencia trees. A total of 15 trees were grafted for each treatment. […] Four leaves from the main stem of Valencia trees were sampled for DNA extraction and determination of CLAS populations.

[1] = test system: Agrobacterium tumefaciens; experiment: microbe, parasite or virus in culture; format: cell-based
A. tumefaciens = experiment: microbe, parasite or virus in culture; format: cell-based; conditions: Agrobacterium tumefaciens, 24 h
Sinorhizobium meliloti = experiment: microbe, parasite or virus in culture; format: cell-based
SecA of Ca. L. asiaticus = SecA of Ca. L. asiaticus (Candidatus Liberibacter asiaticus, UniProt A0ABM5NFG5); experiment: biochemical
Xanthomonas citri = experiment: microbe, parasite or virus in culture; format: cell-based, Xanthomonas citri subsp. citri
CLAS populations = experiment: Effect on CLAS populations, mean Ct by quantitative PCR (Example 2)
Mesorhizobium loti = experiment: microbe, parasite or virus in culture; format: cell-based
Rhizobium etli = experiment: microbe, parasite or virus in culture; format: cell-based
Bradyrhizobium japonicum = experiment: microbe, parasite or virus in culture; format: cell-based
Liberibacter crescens = experiment: microbe, parasite or virus in culture; format: cell-based

For `CCc1nnc(NC(=O)c2cc3c([nH]c4ccccc43)c(C)n2)s1` [Compound C16, N-(5-ethyl-1,3,4-thiadiazol-2-yl)-1-methyl-9H-beta-carboline-3-carboxamide], the “CLAS transmission rate (% trees tested positive for CLAS)” value (CLAS; 3 months after grafting) was 6.7%, the “CLAS transmission rate (% trees tested positive for CLAS)” value (CLAS; 6 months after grafting) was 80% and the MBC [1] was 128 µg/mL (≈ 379 µM). The MIC [1] was 64 µg/mL (≈ 190 µM), the MBC (A. tumefaciens) was 256 µg/mL (≈ 759 µM) and the MBC (Sinorhizobium meliloti) was 64 µg/mL (≈ 190 µM). For the same compound, the MIC (Sinorhizobium meliloti) was 32 µg/mL (≈ 94.8 µM), the IC50 (SecA of Ca. L. asiaticus) was 250 nM and the “inhibition of ATPase activity of SecA, in words” value (SecA of Ca. L. asiaticus) was “high activity”. For the same compound, the MBC (Xanthomonas citri) was 32 µg/mL (≈ 94.8 µM), the MIC (Xanthomonas citri) was 16 µg/mL (≈ 47.4 µM) and the “mean Ct value (CLAS populations)” value (CLAS populations; 2 days after treatment) was 23.76 a. For the same compound, the “mean Ct value (CLAS populations)” value (CLAS populations; 4 days after treatment) was 25.43 b, the “mean Ct value (CLAS populations)” value (CLAS populations; Before treatment) was 22.71 a and the “CLAS population reduction as compared to water-treated control” value (CLAS populations; P<0.05, Fisher's LSD) was “significant effect”. For the same compound, the MBC (Mesorhizobium loti) was 16 µg/mL (≈ 47.4 µM), the MIC (Mesorhizobium loti) was 8 µg/mL (≈ 23.7 µM) and the MBC (Rhizobium etli; 24 hrs) was 16 µg/mL (≈ 47.4 µM). It also gave an MIC (Rhizobium etli; 24 hrs) of 16 µg/mL (≈ 47.4 µM), an MBC (Rhizobium etli; 120 hrs) of 32 µg/mL (≈ 94.8 µM) and an MIC (Rhizobium etli; 120 hrs) of 32 µg/mL (≈ 94.8 µM). The MBC (Bradyrhizobium japonicum; 24 hrs) was 16 µg/mL (≈ 47.4 µM), the MIC (Bradyrhizobium japonicum; 24 hrs) was 16 µg/mL (≈ 47.4 µM) and the MBC (Bradyrhizobium japonicum; 120 hrs) was 32 µg/mL (≈ 94.8 µM). For the same compound, the MIC (Bradyrhizobium japonicum; 120 hrs) was 32 µg/mL (≈ 94.8 µM), the MBC (Liberibacter crescens; 24 h) was 16 µg/mL (≈ 47.4 µM) and the MIC (Liberibacter crescens; 24 h) was 8 µg/mL (≈ 23.7 µM). The MBC (Liberibacter crescens; 120 h) was 32 µg/mL (≈ 94.8 µM) and the MIC (Liberibacter crescens; 120 h) was 16 µg/mL (≈ 47.4 µM).
With `[H]/N=C(/N)N[C@H]1[C@H](O)[C@@H](O)[C@H](O[C@@H]2O[C@@H](C)[C@](O)(C=O)[C@H]2O[C@@H]2O[C@@H](CO)[C@H](O)[C@@H](O)[C@@H]2NC)[C@@H](N/C(N)=N\[H])[C@@H]1O` [Streptomycin, reference compound] the “CLAS transmission rate (% trees tested positive for CLAS)” value (CLAS; 3 months after grafting) was 13.3%, the “CLAS transmission rate (% trees tested positive for CLAS)” value (CLAS; 6 months after grafting) was 66.7% and the MBC [1] was 128 µg/mL (≈ 220 µM). The MIC [1] was 64 µg/mL (≈ 110 µM), the MBC (A. tumefaciens) was 64 µg/mL (≈ 110 µM) and the MBC (Sinorhizobium meliloti) was 128 µg/mL (≈ 220 µM). For the same compound, the MIC (Sinorhizobium meliloti) was 64 µg/mL (≈ 110 µM), the MBC (Xanthomonas citri) was 32 µg/mL (≈ 55 µM) and the MIC (Xanthomonas citri) was 32 µg/mL (≈ 55 µM). It also gave an MBC (Mesorhizobium loti) of 32 µg/mL (≈ 55 µM), an MIC (Mesorhizobium loti) of 16 µg/mL (≈ 27.5 µM) and an MBC (Rhizobium etli; 24 hrs) of 4 µg/mL (≈ 6.88 µM). It also gave an MIC (Rhizobium etli; 24 hrs) of 4 µg/mL (≈ 6.88 µM), an MBC (Rhizobium etli; 120 hrs) of 16 µg/mL (≈ 27.5 µM) and an MIC (Rhizobium etli; 120 hrs) of 16 µg/mL (≈ 27.5 µM). The MBC (Bradyrhizobium japonicum; 24 hrs) was 32 µg/mL (≈ 55 µM), the MIC (Bradyrhizobium japonicum; 24 hrs) was 32 µg/mL (≈ 55 µM) and the MBC (Bradyrhizobium japonicum; 120 hrs) was 32 µg/mL (≈ 55 µM). It also gave an MIC (Bradyrhizobium japonicum; 120 hrs) of 32 µg/mL (≈ 55 µM), an MBC (Liberibacter crescens; 24 h) of 16 µg/mL (≈ 27.5 µM) and an MIC (Liberibacter crescens; 24 h) of 16 µg/mL (≈ 27.5 µM). The MBC (Liberibacter crescens; 120 h) was 32 µg/mL (≈ 55 µM) and the MIC (Liberibacter crescens; 120 h) was 32 µg/mL (≈ 55 µM).
